Test results from patent publication US9963496B2, “Stable glucagon analogues and use for treatment of hypoglycaemia” (Novo Nordisk A/S, priority 2014, dated 2018).
*1 amine or outer side, *2 acyl side, *3 side chain or, on linkers, in order; H or OH if unused. Where a SMILES comes first, the peptide text is derived from it. Side-chain parts run from the residue outwards. [ ]: non-standard residue; d: D form. The star is where a group is joined. γGlu = O=C(O)[C@H](CCC(=O)[*:2])N[*:1]; Desaminohistidyl = O=C(CCc1c[nH]cn1)*; Aib = CC(C)(N)C(=O)O

assay: physchem; format: physicochemical; conditions: pH 7.5
Procedure, shortened: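 Peptide at 250 μM in 10 mM HEPES pH 7.5 with 1 μM Thioflavin T, incubated at 37° C with 960 rpm orbital shaking. ThT fluorescence (ex 444/em 485 nm) read every 20 min; lag-time (t0−2τ) and kapp (1/τ) from curve fit. Recovery is post-assay supernatant peptide by RP-HPLC as % of initial.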

Row | Compound | recovery at 250 μM
1 | CC(=O)N[C@@H](CCC(=O)N[C@@H](CCC(=O)N[C@@H](CCC(=O)N[C@@H](CCC(=O)NCCCC[C@H](NC(=O)[C@@H](NC(=O)[C@H](Cc1ccccc1)NC(=O)[C@H](CC(=O)O)NC(=O)[C@H](CCC(N)=O)NC(=O)[C@H](C)NC(=O)[C@H](CCCNC(=N)N)NC(=O)[C@H](CCCNC(=N)N)NC(=O)[C@H](CC(C)C)NC(=O)[C@H](CC(=O)O)NC(=O)[C@H](CC(C)C)NC(=O)[C@H](Cc1ccc(O)cc1)NC(=O)[C@H](CCCCN)NC(=O)[C@H](CO)NC(=O)[C@H](Cc1ccc(O)cc1)NC(=O)[C@H](CC(=O)O)NC(=O)[C@H](CO)NC(=O)[C@@H](NC(=O)[C@H](Cc1ccccc1)NC(=O)[C@@H](NC(=O)CNC(=O)[C@H](Cc1c[nH]cn1)NC(=O)C(C)(C)NC(=O)CCc1c[nH]cn1)[C@@H](C)O)[C@@H](C)O)C(C)C)C(=O)N[C@@H](Cc1c[nH]c2ccccc12)C(=O)N[C@@H](CC(C)C)C(=O)N[C@@H](CC(C)C)C(=O)N[C@@H](CO)C(=O)N[C@H](C(=O)O)[C@@H](C)O)C(=O)O)C(=O)O)C(=O)O)C(=O)O [Example 1, N^ϵ24-[(4S)-4-[[(4S)-4-[[(4S)-4-[[(4S)-4-acetamido-4-carboxybutanoyl]amino]-4-carboxybutanoyl]amino]-4-carboxybutanoyl]amino]-4-carboxybutanoyl]-[Imp1, Aib2, His3, Leu16, Lys24, Leu27, Ser28]-Glucagon] (Desaminohistidyl-[Aib]HGTFTSDYSKYLDLRRAQDFVK([γGlu-γGlu-γGlu-γGlu-Ac])WLLST-OH) | 101%
2 | CC(=O)N[C@@H](CCC(=O)N[C@@H](CCC(=O)N[C@@H](CCC(=O)N[C@@H](CCC(=O)NCCCC[C@H](NC(=O)[C@H](CC(C)C)NC(=O)[C@H](CC(C)C)NC(=O)[C@H](Cc1c[nH]c2ccccc12)NC(=O)[C@H](C)NC(=O)[C@@H](NC(=O)[C@H](Cc1ccccc1)NC(=O)[C@H](CC(=O)O)NC(=O)[C@H](CCC(N)=O)NC(=O)[C@H](C)NC(=O)[C@H](CCCNC(=N)N)NC(=O)[C@H](CCCNC(=N)N)NC(=O)[C@H](CO)NC(=O)[C@H](CCC(=O)O)NC(=O)[C@H](CC(C)C)NC(=O)[C@H](Cc1ccc(O)cc1)NC(=O)[C@H](CCCCN)NC(=O)[C@H](CO)NC(=O)[C@H](Cc1ccc(O)cc1)NC(=O)[C@H](CC(=O)O)NC(=O)[C@H](CO)NC(=O)[C@@H](NC(=O)[C@H](Cc1ccccc1)NC(=O)[C@@H](NC(=O)CNC(=O)[C@H](Cc1c[nH]cn1)NC(=O)C(C)(C)NC(=O)CCc1c[nH]cn1)[C@@H](C)O)[C@@H](C)O)C(C)C)C(=O)N[C@H](C(=O)O)[C@@H](C)O)C(=O)O)C(=O)O)C(=O)O)C(=O)O [Example 4, N^ϵ28-[(4S)-4-[[(4S)-4-[[(4S)-4-[[(4S)-4-acetamido-4-carboxybutanoyl]amino]-4-carboxybutanoyl]amino]-4-carboxybutanoyl]amino]-4-carboxybutanoyl]-[Imp1, Aib2, His3, Glu15, Ala24, Leu27, Lys28]-Glucagon] (Desaminohistidyl-[Aib]HGTFTSDYSKYLESRRAQDFVAWLLK([γGlu-γGlu-γGlu-γGlu-Ac])T-OH) | 100%
3 | CC(=O)N[C@@H](CCC(=O)N[C@@H](CCC(=O)N[C@@H](CCC(=O)N[C@@H](CCC(=O)NCCCC[C@H](NC(=O)[C@@H](NC(=O)[C@H](Cc1ccccc1)NC(=O)[C@H](CCC(=O)O)NC(=O)[C@H](CCC(N)=O)NC(=O)[C@H](C)NC(=O)[C@H](CCCNC(=N)N)NC(=O)[C@H](CCCNC(=N)N)NC(=O)[C@H](CC(C)C)NC(=O)[C@H](CC(=O)O)NC(=O)[C@H](CC(C)C)NC(=O)[C@H](Cc1ccc(O)cc1)NC(=O)[C@H](CCCCN)NC(=O)[C@H](CO)NC(=O)[C@H](Cc1ccc(O)cc1)NC(=O)[C@H](CC(=O)O)NC(=O)[C@H](CO)NC(=O)[C@@H](NC(=O)[C@H](Cc1ccccc1)NC(=O)[C@@H](NC(=O)CNC(=O)[C@H](Cc1c[nH]cn1)NC(=O)[C@H](CO)NC(=O)CCc1c[nH]cn1)[C@@H](C)O)[C@@H](C)O)C(C)C)C(=O)N[C@@H](Cc1c[nH]c2ccccc12)C(=O)N[C@@H](CC(C)C)C(=O)N[C@@H](CC(C)C)C(=O)N[C@@H](CO)C(=O)N[C@H](C(=O)O)[C@@H](C)O)C(=O)O)C(=O)O)C(=O)O)C(=O)O [Example 8, N^ϵ24-[(4S)-4-[[(4S)-4-[[(4S)-4-[[(4S)-4-acetamido-4-carboxybutanoyl]amino]-4-carboxybutanoyl]amino]-4-carboxybutanoyl]amino]-4-carboxybutanoyl]-[Imp1, His3, Leu16, Glu21, Lys24, Leu27, Ser28]-Glucagon] (Desaminohistidyl-SHGTFTSDYSKYLDLRRAQEFVK([γGlu-γGlu-γGlu-γGlu-Ac])WLLST-OH) | 103%
4 | CC(=O)N[C@@H](CCC(=O)N[C@@H](CCC(=O)N[C@@H](CCC(=O)N[C@@H](CCC(=O)NCCCC[C@H](NC(=O)[C@@H](NC(=O)[C@H](Cc1ccccc1)NC(=O)[C@H](CC(=O)O)NC(=O)[C@H](CCC(N)=O)NC(=O)[C@H](C)NC(=O)[C@H](CCCNC(=N)N)NC(=O)[C@H](CCCNC(=N)N)NC(=O)[C@@H](NC(=O)[C@H](CC(=O)O)NC(=O)[C@H](CC(C)C)NC(=O)[C@H](Cc1ccc(O)cc1)NC(=O)[C@H](CCCCN)NC(=O)[C@H](CO)NC(=O)[C@H](Cc1ccc(O)cc1)NC(=O)[C@H](CC(=O)O)NC(=O)[C@H](CO)NC(=O)[C@@H](NC(=O)[C@H](Cc1ccccc1)NC(=O)[C@@H](NC(=O)CNC(=O)[C@H](Cc1c[nH]cn1)NC(=O)C(C)(C)NC(=O)CCc1c[nH]cn1)[C@@H](C)O)[C@@H](C)O)C(C)C)C(C)C)C(=O)N[C@@H](Cc1c[nH]c2ccccc12)C(=O)N[C@@H](CC(C)C)C(=O)N[C@@H](CC(C)C)C(=O)N[C@@H](CO)C(=O)N[C@H](C(=O)O)[C@@H](C)O)C(=O)O)C(=O)O)C(=O)O)C(=O)O [Example 10, N^ϵ24-[(4S)-4-[[(4S)-4-[[(4S)-4-[[(4S)-4-acetamido-4-carboxybutanoyl]amino]-4-carboxybutanoyl]amino]-4-carboxybutanoyl]amino]-4-carboxybutanoyl]-[Imp1, Aib2, His3, Val16, Lys24, Leu27, Ser28]-Glucagon] (Desaminohistidyl-[Aib]HGTFTSDYSKYLDVRRAQDFVK([γGlu-γGlu-γGlu-γGlu-Ac])WLLST-OH) | 100%
